# According to ChEMBL document CHEMBL1132892, “Cyclic thioether peptide mimetics as VCAM-VLA-4 antagonists” (Bioorg Med Chem Lett, 2000):
# Assays:
# Integrin alpha-4 [1] = molecular target: T1, Integrin alpha-4 (Homo sapiens, UniProt P13612); experiment: Compound was evaluated for VCAM-VLA-4 antagonistic activity using solid phase assay; assay type: functional
# T1 sequence (P13612 whole entry): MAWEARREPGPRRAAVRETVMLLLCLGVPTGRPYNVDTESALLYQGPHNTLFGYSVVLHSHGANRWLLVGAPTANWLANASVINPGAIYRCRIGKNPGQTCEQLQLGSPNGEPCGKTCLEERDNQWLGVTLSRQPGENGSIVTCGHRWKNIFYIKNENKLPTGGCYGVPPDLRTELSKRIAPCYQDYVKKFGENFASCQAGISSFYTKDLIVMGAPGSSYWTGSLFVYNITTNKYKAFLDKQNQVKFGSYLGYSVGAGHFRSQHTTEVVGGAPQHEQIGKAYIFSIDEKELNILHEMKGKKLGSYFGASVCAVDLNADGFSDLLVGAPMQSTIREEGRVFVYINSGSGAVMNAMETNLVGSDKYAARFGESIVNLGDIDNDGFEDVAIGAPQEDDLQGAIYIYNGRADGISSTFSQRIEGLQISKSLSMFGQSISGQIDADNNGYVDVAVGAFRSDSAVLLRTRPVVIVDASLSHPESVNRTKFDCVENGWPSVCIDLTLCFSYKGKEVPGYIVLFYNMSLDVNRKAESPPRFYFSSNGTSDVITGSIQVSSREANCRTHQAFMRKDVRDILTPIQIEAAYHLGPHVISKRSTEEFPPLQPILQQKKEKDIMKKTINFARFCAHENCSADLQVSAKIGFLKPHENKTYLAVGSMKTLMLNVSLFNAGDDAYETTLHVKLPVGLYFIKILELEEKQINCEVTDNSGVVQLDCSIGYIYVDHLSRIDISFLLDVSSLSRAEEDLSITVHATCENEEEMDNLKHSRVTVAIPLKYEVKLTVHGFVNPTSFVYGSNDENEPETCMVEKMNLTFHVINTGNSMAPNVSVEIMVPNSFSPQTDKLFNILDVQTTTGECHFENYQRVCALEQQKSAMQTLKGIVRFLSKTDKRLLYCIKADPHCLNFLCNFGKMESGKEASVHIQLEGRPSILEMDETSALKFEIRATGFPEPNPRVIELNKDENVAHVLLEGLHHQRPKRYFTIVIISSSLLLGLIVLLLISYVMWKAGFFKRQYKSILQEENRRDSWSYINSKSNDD
# Integrin alpha-4 [2] = molecular target: T1, Integrin alpha-4; experiment: Compound was evaluated for VCAM-VLA-4 antagonistic activity using Ramos cell assay; assay type: functional, cell-based
IC50 (Integrin alpha-4 [1]),IC50 (Integrin alpha-4 [2]),Compound
0.5 nM,20 nM,CC(=O)N1CCC(c2ccc(O)cc2)C1C(=O)N[C@H]1CSCC[C@@H](C(=O)O)NC(=O)C2(CCCC2)CCNC1=O (some centres not stated)
2.7 nM,220 nM,CC(=O)N1CCC(c2ccc(O)cc2)C1C(=O)N[C@H]1CCSC[C@@H](C(=O)O)NC(=O)C2(CCCC2)CCNC1=O (some centres not stated)
0.1 nM,1.5 nM,CC(=O)N1CCC(c2ccc(O)cc2)C1C(=O)N[C@H]1CSSC[C@@H](C(=O)O)NC(=O)C2(CCCC2)CCNC1=O (some centres not stated)
35 nM,–,CC(=O)N1CCC(c2ccc(O)cc2)C1C(=O)N[C@H]1CCSCC[C@@H](C(=O)O)NC(=O)C2(CCCC2)CCNC1=O (some centres not stated)
